Source: article PMC2857410 (The Journal of neuroscience : the official journal of the …, 2009)

Experiments:
[1] = target: homomeric α7-nAChR (Xenopus oocytes) (Rattus norvegicus, UniProt Q05941); test: two-electrode voltage clamp, agonist-induced current; format: cell-based; conditions: 10 mM, 2 s exposure, -70 mV, pH 7.5
[2] = target: heteromeric α7β2-nAChR (Xenopus oocytes) (Rattus norvegicus, UniProt P12390+Q05941); test: as above; format: cell-based; conditions: 10 mM, 2 s exposure, -70 mV, pH 7.5
Sequence of heteromeric α7β2-nAChR (Xenopus oocytes) (Q05941 23-502): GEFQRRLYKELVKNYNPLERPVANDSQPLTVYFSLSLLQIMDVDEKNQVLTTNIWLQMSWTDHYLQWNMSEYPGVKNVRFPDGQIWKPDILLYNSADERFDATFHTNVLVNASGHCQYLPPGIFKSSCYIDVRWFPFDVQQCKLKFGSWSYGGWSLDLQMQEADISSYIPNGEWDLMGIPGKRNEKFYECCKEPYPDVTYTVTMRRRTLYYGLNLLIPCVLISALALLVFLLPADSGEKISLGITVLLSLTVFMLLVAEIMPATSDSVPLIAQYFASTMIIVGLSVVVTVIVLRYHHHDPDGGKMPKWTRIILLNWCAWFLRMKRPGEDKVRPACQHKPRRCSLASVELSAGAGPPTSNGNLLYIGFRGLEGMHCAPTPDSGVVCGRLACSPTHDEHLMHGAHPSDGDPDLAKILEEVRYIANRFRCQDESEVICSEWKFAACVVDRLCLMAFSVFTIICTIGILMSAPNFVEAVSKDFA
Sequence of heteromeric α7β2-nAChR (Xenopus oocytes) (P12390 25-500): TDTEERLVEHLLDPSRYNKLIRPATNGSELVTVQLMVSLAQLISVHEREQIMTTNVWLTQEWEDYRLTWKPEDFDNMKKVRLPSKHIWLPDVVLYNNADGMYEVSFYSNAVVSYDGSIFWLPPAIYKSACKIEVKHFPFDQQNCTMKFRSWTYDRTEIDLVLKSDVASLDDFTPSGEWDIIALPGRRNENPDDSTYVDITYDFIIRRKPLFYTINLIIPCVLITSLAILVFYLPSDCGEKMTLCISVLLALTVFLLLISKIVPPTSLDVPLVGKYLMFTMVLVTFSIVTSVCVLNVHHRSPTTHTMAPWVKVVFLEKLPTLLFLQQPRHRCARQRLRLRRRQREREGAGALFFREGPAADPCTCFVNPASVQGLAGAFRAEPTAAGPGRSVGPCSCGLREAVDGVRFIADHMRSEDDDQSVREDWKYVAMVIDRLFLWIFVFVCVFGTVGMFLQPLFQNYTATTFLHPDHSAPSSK

Sequence of homomeric α7-nAChR (Xenopus oocytes) (Q05941 23-502): as the sequence (Q05941 23-502) above

## C[N+](C)(C)CCO [choline]
[1]
  two-electrode voltage clamp, agonist-induced current: oocytes injected with rat α7-nAChR subunit cRNA alone
[2]
  two-electrode voltage clamp, agonist-induced current: exhibited smaller peak current responses to choline and slower current decay rates
